{
  "source": "patent US6365643B1",
  "about": "“Photoinitiators for cationic curing” (Th. Goldschmidt AG, priority 1999, dated 2002)",
  "key": {"[1]": {"assay": "Solubility in white spirit", "type": "physicochemical", "from_the_text": "The solubility of the cationic photoinitiators of the invention was compared with the solubility of commercial, hydroxyl-bearing cationic photoinitiators."}, "[2]": {"assay": "Miscibility with organopolysiloxanes containing epoxy groups", "type": "physicochemical"}},
  "note": "Read-outs that look alike come from different tables or passages of the source.",
  "data": [
    {"smiles": "CCCCCCCCCCCCC(O)COc1ccc([I+]c2ccccc2)cc1", "note": "(stereo not drawn) [CD-1012]", "values": [
      {"measurement": "solubility in white spirit", "setting": "[1]", "result": "insoluble"},
      {"measurement": "solubility in white spirit", "setting": "[1]; Table 1, Comparison 1", "result": "insoluble"},
      {"measurement": "miscibility with organopolysiloxanes containing epoxy groups", "setting": "[2]", "result": "no miscibility"}
    ]}
  ]
}
